# Measured values as given in patent publication US20120165332A1, “SULFONAMIDES AND SULFAMIDES AS ZAP-70 INHIBITORS” (Cellzome Limited, priority 2009, published 2012).
# Target: T1, ZAP-70 (Homo sapiens, UniProt P43403)
# T1 construct: endogenous in cells; host or cells: cell lysate
# T1 sequence (P43403 1-619): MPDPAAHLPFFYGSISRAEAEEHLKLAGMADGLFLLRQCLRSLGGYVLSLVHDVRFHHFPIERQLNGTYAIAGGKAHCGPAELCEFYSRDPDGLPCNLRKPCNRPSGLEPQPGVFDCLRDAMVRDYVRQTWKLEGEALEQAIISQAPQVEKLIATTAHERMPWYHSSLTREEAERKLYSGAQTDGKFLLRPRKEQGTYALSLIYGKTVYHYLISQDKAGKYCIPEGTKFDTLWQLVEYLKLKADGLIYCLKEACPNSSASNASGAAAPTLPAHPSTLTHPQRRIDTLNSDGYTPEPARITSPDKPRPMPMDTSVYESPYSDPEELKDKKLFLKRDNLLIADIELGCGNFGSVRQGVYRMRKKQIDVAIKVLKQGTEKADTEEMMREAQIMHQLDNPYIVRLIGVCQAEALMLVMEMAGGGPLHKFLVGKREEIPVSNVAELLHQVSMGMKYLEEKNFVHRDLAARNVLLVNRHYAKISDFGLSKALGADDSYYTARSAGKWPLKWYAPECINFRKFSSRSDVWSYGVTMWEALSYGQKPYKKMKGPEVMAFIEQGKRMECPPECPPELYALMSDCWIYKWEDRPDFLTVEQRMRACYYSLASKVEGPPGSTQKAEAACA
# Assay: ZAP-70 kinobeads assay
# Assay type: binding
# Details: cell lysate, affinity matrix with immobilized aminopyrido-pyrimidine ligand 24, dot blot detection
# Protocol: The compounds of the present invention as described in the previous examples can be tested in the ZAP-70 kinobeads assay as described (EP-A 1862802 and WO-A 2007/137867). Briefly, test compounds (at various concentrations) and the affinity matrix with the immobilized aminopyrido-pyrimidine ligand 24 are added to cell lysate aliquots and allowed to bind to the proteins in the lysate sample. After the incubation time the beads with captured proteins are separated from the lysate. Bound proteins are then eluted and the presence ZAP-70 is detected and quantified using a specific antibody in a dot blot procedure and the Odyssey infrared detection system.
row,Compound,IC50 [nM]
1,"COc1cc(Nc2ncc(F)c(Nc3cccc(C)c3N(CC(N)=O)S(C)(=O)=O)n2)cc(OC)c1OC [Example 14, 2-(N-(2-(5-fluoro-2-(3,4,5-trimethoxyphenylamino)pyrimidin-4-ylamino)-6-methylphenyl)methylsulfonamido) acetamide]",1000 to 10000
2,"COc1cc(Nc2ncc(F)c(Nc3cccc(C)c3N(CCCC(N)=O)S(C)(=O)=O)n2)cc(OC)c1OC [Example 25, 4-(N-(2-(5-fluoro-2-(3,4,5-trimethoxyphenylamino)pyrimidin-4-ylamino)-6-methylphenyl)methylsulfonamido)butanamide]",1000 to 10000
3,"COc1cc(Nc2ncc(F)c(Nc3cccc(C)c3N(CCNC=O)S(C)(=O)=O)n2)cc(OC)c1OC [Example 20, N-(2-(N-(2-(5-fluoro-2-(3,4,5-trimethoxyphenylamino)pyrimidin-4-ylamino)-6-methylphenyl)methylsulfonamido)ethyl)formamide]",100 to 1000
